Several values for one entry are separate records, joined by “and”; a condition that tells them apart may be missing. Equal values may be shown once.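 Cultured in 96-well plates, cells were exposed to test compound for 48 hours across five concentrations. Abbreviation: GI50, concentration required for 50% inhibition of growth. TGI: total growth inhibition.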
Legend:
Assay in all cases: NCI-60 cell line screen, 48 h
DLD-1 colon = tested on: DLD-1 colon
SNB-19 CNS = tested on: SNB-19 CNS
LXFL 529 NSCLC = tested on: LXFL 529 NSCLC
OVCAR-5 ovarian = tested on: OVCAR-5 ovarian
OVCAR-4 ovarian = tested on: OVCAR-4 ovarian
DMS 114 small cell lung = tested on: DMS 114 small cell lung
XF 498 CNS = tested on: XF 498 CNS
HT29 colon = tested on: HT29 colon
KM20L2 colon = tested on: KM20L2 colon
UACC-257 melanoma = tested on: UACC-257 melanoma
M19-MEL melanoma = tested on: M19-MEL melanoma
HCC-2998 colon = tested on: HCC-2998 colon
MALME-3M melanoma = tested on: MALME-3M melanoma
NCI/ADR-RES ovarian = tested on: NCI/ADR-RES ovarian

| Compound | TGI (DLD-1 colon) [µM] | TGI (SNB-19 CNS) [µM] | TGI (LXFL 529 NSCLC) [µM] | TGI (OVCAR-5 ovarian) [µM] | TGI (OVCAR-4 ovarian) [µM] | TGI (DMS 114 small cell lung) [µM] | TGI (XF 498 CNS) [µM] | TGI (HT29 colon) [µM] | TGI (KM20L2 colon) [µM] | TGI (UACC-257 melanoma) | TGI (M19-MEL melanoma) [µM] | TGI (HCC-2998 colon) [µM] | TGI (MALME-3M melanoma) | TGI (NCI/ADR-RES ovarian) [µM] | GI50 (SNB-19 CNS) [µM] | GI50 (NCI/ADR-RES ovarian) [µM] | GI50 (MALME-3M melanoma) [µM] | GI50 (OVCAR-5 ovarian) [µM] | GI50 (HT29 colon) [µM] | GI50 (UACC-257 melanoma) [µM] |
| --- | --- | --- | --- | --- | --- | --- | --- | --- | --- | --- | --- | --- | --- | --- | --- | --- | --- | --- | --- | --- |
| COc1ccccc1NC(=O)CC(=O)N1N=C(c2ccccc2)C(N=Nc2ccc(Cl)cc2)C1=O (stereo unspecified) | > 100 | > 100 | > 100 | > 100 | 56.6 | > 100 | > 100 | > 100 | > 100 | > 100 µM | > 100 | > 100 | – | – | – | – | – | – | – | – |
| CC(=O)NNc1nc(C)c(C(=O)/C=C/c2ccc(Cl)c(Cl)c2)s1 | > 100 | > 100 | – | > 100 | – | > 100 | – | > 100 | > 100 | > 100 µM | > 100 | > 100 | > 100 µM | – | – | – | – | – | – | – |
| C/C(=N/O)c1sc(-c2nc(C)c(/C(C)=N\O)s2)nc1C | > 100 | > 100 | > 100 | – | > 100 | > 100 | > 100 | > 100 | > 100 | > 100 µM | > 100 | > 100 | > 100 µM | – | – | – | – | – | – | – |
| NC(N)=NS(=O)(=O)c1ccc(NC(=O)c2cccc3c(N)c4ccccc4nc23)cc1 | > 100 | > 100 | > 100 | > 100 | > 100 | > 100 | > 100 | – | > 100 | > 100 µM | > 100 | > 100 | > 100 µM | – | – | – | – | – | – | – |
| CCCCCCCCCCCCC(Br)C(C)=O (stereo unspecified) | > 100 | > 100 | > 100 | > 100 | > 100 | > 100 | > 100 | > 100 | > 100 | > 100 µM | > 100 | > 100 | > 100 µM | – | – | – | – | – | – | – |
| O=C(Cc1nc2ccc([N+](=O)[O-])cc2[nH]c1=O)C(=O)Nc1ccccc1[N+](=O)[O-] | > 100 | > 100 | > 100 | > 100 | > 100 | > 100 | – | > 100 | > 100 | > 100 µM | > 100 | > 100 | > 100 µM | – | – | – | – | – | – | – |
| CC(C)C(Sc1nc(-c2ccccc2)c(-c2ccccc2)[nH]1)c1n[nH]c(=S)n1-c1ccccc1 (stereo unspecified) | > 100 | 56.8 | 54.4 | 95 | > 100 | – | 80.3 | 70.3 | 62.8 | 74.9 µM | 35.5 | 46 | 50.9 µM | – | – | – | – | – | – | – |
| COC(=O)C(=O)C(/C(=N/N)C(=O)Nc1ccccc1C(N)=O)c1nc2ccc([N+](=O)[O-])cc2[nH]c1=O (stereo unspecified) | > 100 | > 100 | > 100 | > 100 | > 100 | > 100 | > 100 | > 100 | > 100 | > 100 µM | > 100 | > 100 | > 100 µM | – | – | – | – | – | – | – |
| O=C(O)CCN(CCCN(CCC(=O)O)CCC(=O)O)CCC(=O)O | > 100 | – | > 100 | > 100 | > 100 | > 100 | > 100 | > 100 | > 100 | – | > 100 | > 100 | > 100 µM | – | – | – | – | – | – | – |
| CC1=C(C(=O)CC(=O)C(=O)Nc2ccc(C)c(C)c2)Sc2ccccc2N1 | > 100 | > 100 | > 100 | > 100 | > 100 | > 100 | > 100 | > 100 | > 100 | > 100 µM | > 100 | > 100 | > 100 µM | – | – | – | – | – | – | – |
| NC(CCCCNCc1ccccc1)C(=O)O (stereo unspecified) | > 100 | > 100 | > 100 | > 100 | > 100 | > 100 | – | > 100 | > 100 | > 100 µM | > 100 | > 100 | > 100 µM | – | – | – | – | – | – | – |
| O=C(O)c1ccc([C@@H]2C(=O)N(O)[C@@H]3C=CC[C@@H]32)cc1 | > 100 | > 100 | > 100 | – | – | > 100 | > 100 | > 100 | – | > 100 µM | > 100 | > 100 | > 100 µM | – | – | – | – | – | – | – |
| COc1ccc(/C=C2\CCC(CCN3CCOCC3)C2=O)cc1 (stereo unspecified) | > 100 | > 100 | > 100 | > 100 | > 100 | > 100 | > 100 | > 100 | > 100 | > 100 µM | > 100 | > 100 | > 100 µM | – | – | – | – | – | – | – |
| CCN(CC)Cc1cc(Nc2ccnc3ccc4nn(C)nc4c23)ccc1O | – | > 100 | 27.6 | 35.7 | 37 | – | 24.3 | 20.9 | 25.3 | 27.8 µM | 24.7 | 26.4 | 31.3 µM | – | – | – | – | – | – | – |
| COc1cc(CNc2cnc3ccc(N)cc3n2)cc(OC)c1OC | – | > 100 | > 100 | > 100 | > 100 | > 100 | – | > 100 | > 100 | > 100 µM | > 100 | > 100 | > 100 µM | – | – | – | – | – | – | – |
| COc1ccc(/C=C/C(=O)c2sc(-c3cccnc3)nc2C)cc1 | > 100 | – | – | > 100 | – | > 100 | – | > 100 | > 100 | > 100 µM | > 100 | > 100 | > 100 µM | – | – | – | – | – | – | – |
| COC(=O)C(c1ccc(OC)cc1)N1C(=O)[C@@H](NC(=O)c2ccccc2)[C@H]1[C@@H](C)O (stereo partly specified) | > 100 | > 100 | > 100 | – | > 100 | – | > 100 | > 100 | > 100 | > 100 µM | > 100 | > 100 | > 100 µM | – | – | – | – | – | – | – |
| C=C(Cl)C(C)(Cl)CCC(Cl)C(C)C (stereo unspecified) | – | > 100 | – | > 100 | > 100 | – | – | > 100 | – | > 100 µM | – | > 100 | > 100 µM | > 100 | – | – | – | – | – | – |
| Cc1nc2c3c(ccc2[nH]c1=O)C(=O)c1ccccc1C3=O | > 100 | > 100 | > 100 | > 100 | > 100 | > 100 | > 100 | > 100 | > 100 | > 100 µM | > 100 | > 100 | > 100 µM | – | – | – | – | – | – | – |
| CC(=O)Oc1ccc2cc(-c3ccc(OC(C)=O)c(OC(C)=O)c3)c(=O)oc2c1 | – | > 100 | – | > 100 | > 100 | – | – | > 100 | – | > 100 µM | – | > 100 | > 100 µM | > 100 | – | – | – | – | – | – |
| O=C(Nc1cccc(C(=O)NCCCO)c1)/C(=C/c1ccccc1)NC(=O)c1ccccc1 | – | > 100 | – | > 100 | > 100 | – | – | > 100 | – | > 100 µM | – | > 100 | > 100 µM | > 100 | – | – | – | – | – | – |
| CCOc1cccc(-c2cc(=O)c3cc4c(cc3[nH]2)OCO4)c1 | – | > 27.1 | – | > 100 | > 100 | – | – | 0.593 | – | > 100 µM | – | 0.695 | > 75.1 µM | 0.294 | – | – | – | – | – | – |
| CC1=CC(=O)N(n2c(Cc3ccc(Cl)cc3)n[nH]c2=O)C1=O | – | > 100 | – | > 100 | > 100 | – | – | 55.3 | – | > 100 µM | – | > 100 | > 100 µM | > 100 | – | – | – | – | – | – |
| Cc1cc2c(cc1Cl)SC(NNC1=NCCN1)=NS2(=O)=O | – | > 10 | – | > 10 | > 10 | – | – | > 10 | – | > 10 µM | – | > 10 | > 10 µM | > 10 | – | – | – | – | – | – |
| CCC12C=CCN3CCC4(c5cc(C(c6ccc(OC)cc6)C6Cc7ccccc7N6)c(OC)cc5N(C)C4C(O)(C(=O)OC)C1O)C32 (stereo unspecified) | – | > 100 | – | > 100 | > 100 | – | – | > 100 | – | > 100 µM | – | 57.5 | > 100 µM | > 100 | – | – | – | – | – | – |
| O=C1CC2CC(CC3(CO3)C2)C1F (stereo unspecified) | – | > 100 | – | > 100 | > 100 | – | – | > 100 | – | > 100 µM | – | > 100 | > 100 µM | > 100 | – | – | – | – | – | – |
| C=C1c2nc3ccccc3n2C=C(c2ccc(Cl)cc2)N1c1ccc(OCCN2CCCCC2)cc1 | – | > 100 | – | > 100 | > 45 | – | – | > 100 | – | 37.4 µM and > 100 µM | – | > 100 | 45 µM and > 100 µM | > 100 | 4.53 | 2.14 | 0.415 | > 100 | > 100 | > 100 |
| CC(C)OP(=O)(OC(C)C)C(=NCCN=C(NNc1ccccc1[N+](=O)[O-])P(=O)(OC(C)C)OC(C)C)NNc1ccccc1[N+](=O)[O-] | > 100 | > 100 | > 100 | 72.8 | > 100 | > 100 | – | – | 60.2 | 84.6 µM | > 100 | > 100 | 54.5 µM | – | – | – | – | – | – | – |
| Cc1ccc(-c2nnc3s/c(=C\c4ccc(N(C)C)cc4)c(=O)n23)cc1 | > 100 | > 100 | > 100 | > 100 | > 100 | > 100 | > 100 | – | > 100 | 77.5 µM | > 100 | > 100 | > 100 µM | – | – | – | – | – | – | – |
